Results as given in patent publication US20250115634A1, “LIGAND, METHOD FOR PREPARING SAME, AND USE THEREOF” (priority 2022, published 2025).

Columns and labels:
ASGPR receptor [1] = biological target: T1, ASGPR receptor (Mus musculus, UniProt P24721+P34927); assay: Binding of Cy5-labelled ligands to ASGPR on primary mouse liver cells (Kd); settings: C57 mouse primary liver cells, incubated 37° C. in the dark for 30 min, trypsin to remove surface fluorescence
T1 construct: C57 mouse primary liver cells were isolated; endogenous in cells; host or cells: C57 mouse primary liver cells
T1 sequence (P34927 1-284): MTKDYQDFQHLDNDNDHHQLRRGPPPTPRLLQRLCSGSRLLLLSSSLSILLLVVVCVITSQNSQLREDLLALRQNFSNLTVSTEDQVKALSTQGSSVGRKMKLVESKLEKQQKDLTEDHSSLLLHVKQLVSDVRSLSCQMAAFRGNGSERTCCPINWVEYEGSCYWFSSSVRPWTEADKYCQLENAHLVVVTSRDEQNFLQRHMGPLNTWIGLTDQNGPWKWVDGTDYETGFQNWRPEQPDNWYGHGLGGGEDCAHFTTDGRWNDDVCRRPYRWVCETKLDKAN
T1 sequence (P24721 1-301): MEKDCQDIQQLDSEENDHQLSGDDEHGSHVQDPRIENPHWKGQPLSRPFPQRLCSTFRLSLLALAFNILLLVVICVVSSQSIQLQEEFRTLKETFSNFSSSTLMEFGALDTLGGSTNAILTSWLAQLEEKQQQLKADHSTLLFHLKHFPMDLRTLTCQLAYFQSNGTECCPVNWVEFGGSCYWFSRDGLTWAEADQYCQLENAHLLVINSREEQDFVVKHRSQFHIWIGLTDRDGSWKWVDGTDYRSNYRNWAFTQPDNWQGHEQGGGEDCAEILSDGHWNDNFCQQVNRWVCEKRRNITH
Procedure: (§1) The binding rate of the ligand of the present disclosure to the ASGPR receptor of liver cancer cells was tested, with the ligand with hepatocellular ASGPR-targeting property, loaded in Inclisiran, a small interfering nucleic acid drug marketed by Alnylam, as a positive control (PC).
The ligand-receptor dissociation constant (Kd, which is the drug concentration required for half of the maximum effect, i.e. 50% of the receptors are occupied) was used as a measure of ligand-receptor binding capacity; and the lower the Kd value, the higher the binding capacity.
C57 mouse primary liver cells were isolated, and the cells were in a good state, had viability of 92%, and were at a density of 2×10^5 cells/400 μL.
The test compounds were dissolved with PBS and then diluted with complete medium for primary liver cells to various concentration gradients.
The cells was added with 100 μL of the test compound solution prepared according to the set concentration gradients (the test compounds was first prepared with PBS into a stock solution, which was then diluted to the set concentration gradients with complete medium) and incubated at 37° C. in the dark for 30 min.
After incubation, the cells were washed once with 500 μL of PBS.
The cells were added with typsin to remove fluorescence on the cell surface.
The cells were washed again with 500 μL of PBS and detected on machine.

ASGPR receptor [2] = biological target: T2, ASGPR receptor (Homo sapiens, UniProt P07306+P07307); assay: Binding of Cy5-labelled ligands to ASGPR on HepG2 cell line (Kd); settings: HepG2 cells, incubated at room temperature in the dark for 30 min
T2 construct: HepG2 cells grown to confluence of greater than 80%; endogenous in cells; host or cells: HepG2
T2 sequence (P07306 1-291): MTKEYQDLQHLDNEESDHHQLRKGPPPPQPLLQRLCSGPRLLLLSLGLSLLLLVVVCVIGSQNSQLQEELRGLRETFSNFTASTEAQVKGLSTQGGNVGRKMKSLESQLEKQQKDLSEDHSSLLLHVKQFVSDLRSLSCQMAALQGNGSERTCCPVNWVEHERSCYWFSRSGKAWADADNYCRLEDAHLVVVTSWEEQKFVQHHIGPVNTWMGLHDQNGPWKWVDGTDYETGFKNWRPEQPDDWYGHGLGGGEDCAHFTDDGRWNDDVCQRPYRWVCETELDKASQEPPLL
T2 sequence (P07307 1-311): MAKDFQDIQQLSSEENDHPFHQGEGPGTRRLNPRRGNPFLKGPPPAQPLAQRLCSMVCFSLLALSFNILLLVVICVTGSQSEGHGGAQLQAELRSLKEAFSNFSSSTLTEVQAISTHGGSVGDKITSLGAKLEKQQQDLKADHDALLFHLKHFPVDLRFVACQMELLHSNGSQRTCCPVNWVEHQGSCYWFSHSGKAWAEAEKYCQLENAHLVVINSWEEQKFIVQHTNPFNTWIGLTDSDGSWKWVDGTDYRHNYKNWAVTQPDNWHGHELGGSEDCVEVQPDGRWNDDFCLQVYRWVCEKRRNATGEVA
Procedure: as §1
The ligand-receptor dissociation constant (Kd, which is the drug concentration required for half of the maximum effect, i.e. 50% of the receptors are occupied) was used as a measure of ligand-receptor binding capacity, and the lower the Kd value, the higher the binding capacity.
• 1. HepG2 cells grown to confluence of greater than 80% and in a good state were digested, centrifuged and counted. • 2. The test compounds were diluted with PBS to various concentration gradients. • 3. The cells were washed once with PBS, added with 100 μL of the prepared compounds, and incubated at room temperature in the dark for 30 min. • 4. After incubation, the cells were washed twice with 1 mL of PBS and detected on machine.

Structure (SMILES) | Kd (ASGPR receptor [1]) | Kd (ASGPR receptor [2])
CC[N+]1=C(/C=C/C=C/C=C2/c3ccccc3N(CCCCCC(=O)NCCNC(=O)CCC(=O)Nc3cc(C(=O)NCCOCCOC4OC(CO)C(O)C(O)C4NC(C)=O)cc(C(=O)Nc4cc(C(=O)NCCOCCOC5OC(CO)C(O)C(O)C5NC(C)=O)cc(C(=O)NCCOCCOC5OC(CO)C(O)C(O)C5NC(C)=O)c4)c3)C2(C)C)C(C)(C)c2ccccc21 (centres unmarked) [TC17A-Cy5] | 1.26 nM | 
CC[N+]1=C(/C=C/C=C/C=C2/c3ccccc3N(CCCCCC(=O)NCCNC(=O)CCCCCCCCCCC(=O)N3C[C@H](OCC(=O)NCCOCCOC4OC(CO)C(O)C(O)C4NC(C)=O)C[C@H]3C(=O)NC(C)(COCCC(=O)NCCOCCOC3OC(CO)C(O)C(O)C3NC(C)=O)COCCC(=O)NCCOCCOC3OC(CO)C(O)C(O)C3NC(C)=O)C2(C)C)C(C)(C)c2ccccc21 (some centres unmarked) [TC10A-Cy5] | 0.867 nM | 
CC[N+]1=C(/C=C/C=C/C=C2/c3ccccc3N(CCCCCC(=O)NCCNC(=O)CCCCCCCCCCCNC(COCCC(=O)NCCCNC(=O)CCCCOC3OC(CO)C(O)C(O)C3NC(C)=O)(COCCC(=O)NCCCNC(=O)CCCCOC3OC(CO)C(O)C(O)C3NC(C)=O)COCCC(=O)NCCCNC(=O)CCCCOC3OC(CO)C(O)C(O)C3NC(C)=O)C2(C)C)C(C)(C)c2ccccc21 (centres unmarked) [PC-Cy5, reference compound] | 0.408 nM | 40.2 nM
CC[N+]1=C(/C=C/C=C/C=C2/c3ccccc3N(CCCCCC(=O)NCCNC(=O)CCNC(=O)[C@H](CNC(=O)C(C)(COCC(=O)NCCOCCOC3OC(CO)C(O)C(O)C3NC(C)=O)COCC(=O)NCCOCCOC3OC(CO)C(O)C(O)C3NC(C)=O)NC(=O)C(C)(COCC(=O)NCCOCCOC3OC(CO)C(O)C(O)C3NC(C)=O)COCC(=O)NCCOCCOC3OC(CO)C(O)C(O)C3NC(C)=O)C2(C)C)C(C)(C)c2ccccc21 (some centres unmarked) [TEC02A-Cy5] | 0.198 nM | 20.7 nM

Now from value to molecule, other results behind:

Kd (ASGPR receptor [1]) | Structure (SMILES) | Kd (ASGPR receptor [2])
0.496 nM | CC[N+]1=C(/C=C/C=C/C=C2/c3ccccc3N(CCCCCC(=O)NCCNC(=O)CCCCCCCCCCCNC(=O)[C@H](CNC(=O)C(C)(COCC(=O)NCCOCCOC3OC(CO)C(O)C(O)C3NC(C)=O)COCC(=O)NCCOCCOC3OC(CO)C(O)C(O)C3NC(C)=O)NC(=O)C(C)(CCCC(=O)NCCOCCOC3OC(CO)C(O)C(O)C3NC(C)=O)COCC(=O)NCCOCCOC3OC(CO)C(O)C(O)C3NC(C)=O)C2(C)C)C(C)(C)c2ccccc21 (some centres unmarked) [TEC06A-Cy5] | 
0.696 nM | CC[N+]1=C(/C=C/C=C/C=C2/c3ccccc3N(CCCCCC(=O)NCCCC(=O)CCCCCCCCCCC(=O)N3C[C@H](OCC(=O)NCCOCCOCCOC4OC(CO)C(O)C(O)C4NC(C)=O)C[C@H]3C(=O)NC(COCCC(=O)NCCOCCOCCOC3OC(CO)C(O)C(O)C3NC(C)=O)COCCC(=O)NCCOCCOCCOC3OC(CO)C(O)C(O)C3NC(C)=O)C2(C)C)C(C)(C)c2ccccc21 (some centres unmarked) [TC12A-Cy5] | 
